The source of these data is patent EP2787003A1, “Antimicrobial peptide produced by marine sponge-derived Bacillus subtilis” (priority 2013, dated 2014).

The test system of one series is Candida strains. In words: Spot on lawn assay. The format is cell-based. Particulars: any of the Candida strains. The procedure: (§1) Antimicrobial activity of isolate MMA7 against the indicator strains was initially assessed with a deferred antagonism assay as described by Phelan et al. (2012). Subsequent testing of supernatants, crude extracts and purified compounds was carried out with a well and/or a spot on lawn assays. Essentially, 5 µl of samples were spotted onto 20 ml agar plates seeded with the indicator strain to a final OD600 of 0.015, or 30 µl aliquots were applied to a 5 mm well made on identical plates.
The activity of the purified peptide was tested together with its ASCE preparations, against the strains which were initially used as indicators on the colony overlay assay with the producing strain MMA7 (Table 4). […] No activity was detected against any of the Candida strains.

A further series deals with Alteromonas sp. Kind of series: Spot on lawn assay. The format is cell-based. On the set-up: key to Antimicrobial activity, spot on lawn assay: +, clear halo of growth inhibition; ++: multiple +, increased activity as assessed visually by the increased diameter of the inhibition zone; +++: multiple +, increased activity as assessed visually by the increased diameter of the inhibition zone; ++++: multiple +, increased activity as assessed visually by the increased diameter of the inhibition zone; +++++: multiple +, increased activity as assessed visually by the increased diameter of the inhibition zone; -, no inhibition. The procedure:
as §1

The next series deals with C. albicans. Kind of series: Spot on lawn assay. The format is cell-based, Candida albicans SC5314. Details: key: +, clear halo of growth inhibition; ++: multiple +, increased activity as assessed visually by the increased diameter of the inhibition zone; +++: multiple +, increased activity as assessed visually by the increased diameter of the inhibition zone; ++++: multiple +, increased activity as assessed visually by the increased diameter of the inhibition zone; +++++: multiple +, increased activity as assessed visually by the increased diameter of the inhibition zone; -, no inhibition. As to conditions: indicator C. albicans. Here is the method:
as §1

A further series concerns C. dubliniensis. In words: Spot on lawn assay. The class given is cell-based, Candida dubliniensis. On the set-up: key: +, clear halo of growth inhibition; ++: multiple +, increased activity as assessed visually by the increased diameter of the inhibition zone; +++: multiple +, increased activity as assessed visually by the increased diameter of the inhibition zone; ++++: multiple +, increased activity as assessed visually by the increased diameter of the inhibition zone; +++++: multiple +, increased activity as assessed visually by the increased diameter of the inhibition zone; -, no inhibition. As to conditions: indicator C. dubliniensis. The procedure: as §1

A further series concerns E. faecium. Kind of series: Spot on lawn assay. The class given is cell-based, Euterococcous faecium NCIMB 11508. On the set-up: key: +, clear halo of growth inhibition; ++: multiple +, increased activity as assessed visually by the increased diameter of the inhibition zone; +++: multiple +, increased activity as assessed visually by the increased diameter of the inhibition zone; ++++: multiple +, increased activity as assessed visually by the increased diameter of the inhibition zone; +++++: multiple +, increased activity as assessed visually by the increased diameter of the inhibition zone; -, no inhibition. Particulars: indicator E. faecium. Here is the method:
as §1

The next series relates to V. anguillarum. Kind of series: Spot on lawn assay. The class given is cell-based, Listonella (Vibrio) anguillarum LMG 4410. On the set-up: key to Antimicrobial activity, spot on lawn assay: +, clear halo of growth inhibition; ++: multiple +, increased activity as assessed visually by the increased diameter of the inhibition zone; +++: multiple +, increased activity as assessed visually by the increased diameter of the inhibition zone; ++++: multiple +, increased activity as assessed visually by the increased diameter of the inhibition zone; +++++: multiple +, increased activity as assessed visually by the increased diameter of the inhibition zone; -, no inhibition. The procedure: as §1

Another series deals with B. megaterium. In words: Spot on lawn assay. The format is cell-based, Bacillus megaterium ATCC 19213 (BGSC 7A2). On the set-up: key: +, clear halo of growth inhibition; ++: multiple +, increased activity as assessed visually by the increased diameter of the inhibition zone; +++: multiple +, increased activity as assessed visually by the increased diameter of the inhibition zone; ++++: multiple +, increased activity as assessed visually by the increased diameter of the inhibition zone; +++++: multiple +, increased activity as assessed visually by the increased diameter of the inhibition zone; -, no inhibition. Particulars: indicator B. megaterium. The procedure: as §1

A further series concerns C. lusitaniae. Kind of series: Spot on lawn assay. The format is cell-based, Candida lusitaniae. Details: key: +, clear halo of growth inhibition; ++: multiple +, increased activity as assessed visually by the increased diameter of the inhibition zone; +++: multiple +, increased activity as assessed visually by the increased diameter of the inhibition zone; ++++: multiple +, increased activity as assessed visually by the increased diameter of the inhibition zone; +++++: multiple +, increased activity as assessed visually by the increased diameter of the inhibition zone; -, no inhibition. Particulars: indicator C. lusitaniae. Here is the method:
as §1

The next series deals with α-chymotrypsin (Bos taurus, UniProt P00766). In words: Susceptibility to proteolytic enzymes, bioactivity by spot on lawn assay. Particulars: α-chymotrypsin 1 mg ml^-1, 37 °C, 1 h; indicator L. monocytogenes.
The next series has as its system C. sporogenes. In words: Spot on lawn assay. On the set-up: key: +, clear halo of growth inhibition; ++: multiple +, increased activity as assessed visually by the increased diameter of the inhibition zone; +++: multiple +, increased activity as assessed visually by the increased diameter of the inhibition zone; ++++: multiple +, increased activity as assessed visually by the increased diameter of the inhibition zone; +++++: multiple +, increased activity as assessed visually by the increased diameter of the inhibition zone; -, no inhibition. The class given is cell-based, Clostridium sporogenes NCDO 1791. Particulars: indicator C. sporogenes. The procedure:
as §1

In a further series the test system is A. hydrophila. Kind of series: Spot on lawn assay. The class given is cell-based, Aeromonas hydrophila LMG 2844. On the set-up: key to Antimicrobial activity, spot on lawn assay: +, clear halo of growth inhibition; ++: multiple +, increased activity as assessed visually by the increased diameter of the inhibition zone; +++: multiple +, increased activity as assessed visually by the increased diameter of the inhibition zone; ++++: multiple +, increased activity as assessed visually by the increased diameter of the inhibition zone; +++++: multiple +, increased activity as assessed visually by the increased diameter of the inhibition zone; -, no inhibition. The procedure: as §1

In another series the test system is MRSA. Kind of series: Spot on lawn assay. The class given is cell-based, MRSA ST 530. Details: key: +, clear halo of growth inhibition; ++: multiple +, increased activity as assessed visually by the increased diameter of the inhibition zone; +++: multiple +, increased activity as assessed visually by the increased diameter of the inhibition zone; ++++: multiple +, increased activity as assessed visually by the increased diameter of the inhibition zone; +++++: multiple +, increased activity as assessed visually by the increased diameter of the inhibition zone; -, no inhibition. Particulars: indicator MRSA.

The conditions of series [1]: dried pellets from 1.5 ml RP-HPLC-purified fractions.

On to `C=C1NC(=O)[C@@H]2CSC[C@@H](NC(=O)[C@@H]3CS[C@@H](C)[C@H]4NC(=O)[C@H](Cc5ccccc5)NC(=O)[C@H](NC(=O)[C@H](CCCNC(=N)N)NC(=O)[C@@H]5CSC[C@@H](NC(=O)[C@H](CCC(N)=O)NC(=O)[C@@H](NC(=O)[C@@H](NC(=O)/C(=C/C)NC(=O)[C@H](CCCCN)NC(=O)CNC(=O)[C@@H](NC(=O)/C(=C/C)NC(=O)[C@H](C)NC(=O)[C@H](Cc6c[nH]c7ccccc67)NC(=O)C(=O)CC)[C@@H](C)CC)[C@@H](C)CC)C(C)C)C(=O)N[C@@H](C(C)C)C(=O)N[C@@H](CCCCN)C(=O)N[C@@H](CCCCN)C(=O)N5)[C@H](C)SC[C@H](NC4=O)C(=O)NCC(=O)N3)C(=O)N[C@@H](CC(C)C)C(=O)NCC(=O)N[C@H](CSC[C@@H](C(=O)N[C@@H](CC(N)=O)C(=O)O)NC(=O)[C@H](CC(N)=O)NC1=O)C(=O)N2` [Subtilomycin], for which the Antimicrobial activity entry in the series with Candida strains is “No activity”. Moreover, the “Amount of peptide needed for detectable activity relative to that required to inhibit the Gram-positive indicators” value in the series on Alteromonas sp. (Alteromonas sp.), with V. anguillarum (V. anguillarum) and in the series with A. hydrophila (A. hydrophila) was “four to five fold more peptide” in each case. The “Antimicrobial activity, spot on lawn assay” value in the series with Alteromonas sp. (indicator Alteromonas sp., *activity only detected with 4 to 5 times more peptide than that used for the other indicators) was “+*”; with C. albicans, “-”; in the series on C. dubliniensis, “-”; in the series on E. faecium, “-”; in the series with V. anguillarum (indicator V. anguillarum, *activity only detected with 4 to 5 times more peptide than that used for the other indicators), “+*”; in the series on B. megaterium, “++”. For the same compound, the “Antimicrobial activity, spot on lawn assay” value in the series with C. lusitaniae is given as “-”; in the series with C. sporogenes, “+++”; in the series with A. hydrophila (indicator A. hydrophila, *activity only detected with 4 to 5 times more peptide than that used for the other indicators), “+*”; in the series with MRSA, “+”. Besides, the “Antimicrobial activity after proteolytic treatment” value on α-chymotrypsin is on record as “None of the treatments resulted in a decrease of activity”. In addition, the Solubility in water entry in [1] is recorded as “fully soluble”.
